Measured values taken from US8686044B2, “Amide derivative, pest control agent containing the amide derivative, and use of the amide derivative” (Mitsui Chemicals Agro, Inc., priority 2008, dated 2014).

Key:
Type in all cases: in vivo
[1] = system: Spodoptera litura; assay: Pesticidal test against Spodoptera litura (cabbage leaf dip); details: foliar, 144 h, concentration 1 ppm, 2-stage larvae, examined after 6 days, 25° C., read-out: pesticidal rate
Summary of the method: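 Cabbage leaf pieces dipped 30 seconds in compound solution at a predetermined concentration and air-dried, then offered to second-stage larvae, five per group in two replicates. Held at 25° C. Living and dead larvae counted after 6 days.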

[2] = system: Plutella xylostella; assay: Pesticidal test against Plutella xylostella (cabbage leaf dip); details: foliar, 144 h, concentration 1 ppm, 2-stage larvae, examined after 6 days, 25° C., read-out: pesticidal rate
Summary of the method: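 Cabbage leaf pieces dipped 30 s in test solution at a predetermined concentration, air-dried, then offered to 2nd-instar larvae, five per group in duplicate. Held at 25° C; living and dead larvae counted after 6 days.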

[3] = system: Adoxophyes honmai; assay: Pesticidal test against Adoxophyes honmai (artificial feed dip); details: 144 h, 2-stage larvae, examined after 6 days, 25° C., read-out: pesticidal rate; for pest or weed control at 1 ppm: concentration 1 ppm; for pest or weed control at 10 ppm: concentration 10 ppm
Summary of the method: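 Thin artificial feed slices dipped 30 s in test solution at a predetermined concentration, air-dried, then offered to 2nd-stage larvae. Kept at 25° C; live and dead larvae counted after 6 days. Five larvae per group, two replicates.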

[4] = system: Choristoneura magnanima; assay: Pesticidal test against Choristoneura magnanima (artificial feed dip); details: 144 h, 2-stage larvae, examined after 6 days, 25° C., read-out: pesticidal rate; for pest or weed control at 10 ppm: concentration 10 ppm; for pest or weed control at 1 ppm: concentration 1 ppm
Summary of the method: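 Thin artificial feed slices dipped 30 s in compound solution at a set concentration, air-dried, then offered to 2nd-stage larvae held at 25° C. Living and dead larvae counted after 6 days; five larvae per group, two replicates.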

[5] = system: Helicoverpa armigera; assay: Pesticidal test against Helicoverpa armigera (cabbage leaf disk dip); details: foliar, 72 h, concentration 1 ppm, 2-stage larvae, examined after 3 days, 25° C., read-out: pesticidal rate
Summary of the method: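 Cabbage leaf disks were dipped for 30 s in test solution at a set concentration and air-dried. Second-instar larvae were placed one per hole and held at 25 °C, with live and dead counts taken after 3 days. Five larvae per group were tested in two replicates.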

[6] = system: Laodelphax striatellus; assay: Pesticidal test against Laodelphax striatellus (rice seedling spray); details: 144 h, concentration 100 ppm, 3-stage larvae, examined after 6 days, 25° C., read-out: pesticidal rate
Summary of the method: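 Rice seedlings sprayed with 2.5 ml acetone solution of compound at a predetermined concentration, air-dried, then infested with third-stage Laodelphax striatellus larvae in capped water-containing tubes at 25 °C. Living and dead insects counted after 6 days; ten larvae per group, two replicates.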

[7] = system: Musca domestica; assay: Pesticidal test against Musca domestica (petri dish dry film); details: 24 h, concentration 100 ppm, female adults, examined after 1 day, 25° C., read-out: pesticidal rate
Summary of the method: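 Dry film from 1 ml acetone solution of compound at a predetermined concentration, air-dried in a 9 cm petri dish; female adult flies released and dish capped. Held at 25° C; living and dead counted after 1 day. Five insects per group, two replicates.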

[8] = system: Coptotermes formosanus; assay: Pesticidal test against Coptotermes formosanus (treated filter paper); details: 120 h, concentration 30 ppm, examined after 5 days of treatment, 28° C., read-out: pesticidal rate
Experimental: Pesticidal Test against Coptotermes formosanus
20 μl of an acetone solution in which a test compound had been prepared at a predetermined concentration was added dropwise to the filter paper having a diameter of […] included in a polypropylene cup, and air-dried, and then 20 μl of water was added thereto. Coptotermes formosanus was released and the cup was capped. They were left to stand in a thermostatic chamber at 28° C., and the numbers of the living pests and the dead pests were examined after 5 days of treatment. The test was carried out with ten larvae per group in two replicates.

[9] = system: Blattella germanica; assay: Pesticidal test against Blattella germanica (petri dish dry film); details: 24 h, concentration 100 ppm, female adults, examined after 1 day, 25° C., read-out: pesticidal rate
Summary of the method: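 Acetone solution of test compound at a predetermined concentration dried as a film in a 9 cm petri dish; female adult cockroaches released onto it and kept at 25° C. Living and dead counted after 1 day; five insects per group, two replicates.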

[10] = system: Rhipicephalus sanguineus; assay: Insecticidal test for Rhipicephalus sanguineus (treated glass petri dish, Table A6); details: adults of Rhipicephalus sanguineus, 18 hour exposure, examined after 48 hours, in single
Experimental: Insecticidal Test for Rhipicephalus sanguineus
0.5 ml of a solution of acetone, the active ingredient, prepared to the prescribed dose was added dropwise into a glass petri dish with a diameter of 10 cm, and the acetone was evaporated at room temperature. About 10 adults of Rhipicephalus sanguineus per dish were added, and the dish was covered by another glass petri dish that was treated with the active ingredient in the same manner described above. After 18 hour exposure to the test substance, the adults were transferred into a glass petri dish that was not treated with the active ingredient. After 48 hours of the exposure, the conditions of the adults were examined and classified into “alive” and “dead (including a moribund condition)” to determine the death rate (in single).
As the comparative compounds, said Compounds (B), (C), and (D), and the following Compound (F) disclosed in WO2009/080203, and fipronil were used.

| SMILES | pest or weed control at 1 ppm [1] [%] | pest or weed control at 1 ppm [2] [%] | pest or weed control at 1 ppm [3] [%] | pest or weed control at 10 ppm [4] [%] | pest or weed control at 1 ppm [5] [%] | pest or weed control at 100 ppm [6] [%] | pest or weed control at 100 ppm [7] [%] | pest or weed control at 30 ppm [8] [%] | pest or weed control at 1 ppm [4] [%] | pest or weed control at 100 ppm [9] [%] | pest or weed control at 10 ppm [3] [%] | death rate ([10]; 0.673 mg/m^2) [%] | death rate ([10]; 2.69 mg/m^2) [%] | death rate ([10]; 10.8 mg/m^2) [%] |
| --- | --- | --- | --- | --- | --- | --- | --- | --- | --- | --- | --- | --- | --- | --- |
| O=C(Nc1c(I)cc(C(F)(C(F)(F)F)C(F)(F)F)cc1C(F)(F)F)c1cccc(NC(=O)c2cccnc2Cl)c1 [6-460, 2-chloro-N-(3-(2-iodo-4-(perfluoropropan-2-yl)-6-(trifluoromethyl)phenylcarbamoyl)phenyl)nicotinamide] | ≥ 70 | ≥ 70 | ≥ 70 | ≥ 70 | ≥ 70 | ≥ 70 | ≥ 70 | ≥ 70 |  |  |  |  |  |  |
| O=C(Nc1cccc(C(=O)Nc2c(I)cc(C(F)(C(F)(F)F)C(F)(F)F)cc2I)c1F)c1ccccc1 [6-1260, 3-benzamide-N-(2,6-diiodo-4-(perfluoropropan-2-yl)phenyl)-2-fluorobenzamide] | ≥ 70 | ≥ 70 | ≥ 70 |  | ≥ 70 | ≥ 70 | ≥ 70 | ≥ 70 | ≥ 70 |  |  |  |  |  |
| O=C(Nc1cccc(C(=O)Nc2c(Br)cc(C(F)(C(F)(F)F)C(F)(F)C(F)(F)F)cc2C(F)(F)F)c1F)c1ccccc1 (centres unmarked) [6-1652] | ≥ 70 | ≥ 70 | ≥ 70 |  | ≥ 70 | ≥ 70 | ≥ 70 | ≥ 70 | ≥ 70 |  |  |  |  |  |
| CN(C(=O)c1ccccc1)c1cccc(C(=O)Nc2c(Br)cc(C(F)(C(F)(F)F)C(F)(F)F)cc2C(F)(F)F)c1 [7-268] | ≥ 70 | ≥ 70 |  |  |  | ≥ 70 | ≥ 70 | ≥ 70 |  | ≥ 70 |  |  |  |  |
| CN(C(=O)c1ccccc1)c1cccc(C(=O)Nc2c(I)cc(C(F)(C(F)(F)F)C(F)(F)F)cc2C(F)(F)F)c1 [7-424] | ≥ 70 | ≥ 70 |  | ≥ 70 | ≥ 70 | ≥ 70 | ≥ 70 | ≥ 70 |  | ≥ 70 | ≥ 70 |  |  |  |
| CN(C(=O)c1cccnc1Cl)c1cccc(C(=O)Nc2c(I)cc(C(F)(C(F)(F)F)C(F)(F)C(F)(F)F)cc2C(F)(F)F)c1 (centres unmarked) [7-538] | ≥ 70 | ≥ 70 | ≥ 70 | ≥ 70 | ≥ 70 | ≥ 70 | ≥ 70 |  |  | ≥ 70 |  |  |  |  |
| CN(C(=O)c1cccc(F)c1)c1cccc(C(=O)Nc2c(Br)cc(C(F)(C(F)(F)F)C(F)(F)F)cc2Br)c1F [7-1106] | ≥ 70 | ≥ 70 | ≥ 70 |  | ≥ 70 | ≥ 70 | ≥ 70 |  | ≥ 70 | ≥ 70 |  |  |  |  |
| CN(C(=O)c1cccc(F)c1)c1cccc(C(=O)Nc2c(I)cc(C(F)(C(F)(F)F)C(F)(F)F)cc2I)c1F [7-1262] | ≥ 70 | ≥ 70 | ≥ 70 |  | ≥ 70 | ≥ 70 | ≥ 70 |  | ≥ 70 | ≥ 70 |  |  |  |  |
| CN(C(=O)c1cccc(C#N)c1)c1cccc(C(=O)Nc2c(I)cc(C(F)(C(F)(F)F)C(F)(F)F)cc2I)c1F [7-1280] | ≥ 70 | ≥ 70 | ≥ 70 |  | ≥ 70 | ≥ 70 | ≥ 70 |  | ≥ 70 | ≥ 70 |  |  |  |  |
| CN(C(=O)c1ccc(Cl)nc1)c1cccc(C(=O)Nc2c(I)cc(C(F)(C(F)(F)F)C(F)(F)F)cc2I)c1F [7-1303] | ≥ 70 | ≥ 70 | ≥ 70 |  | ≥ 70 | ≥ 70 | ≥ 70 |  | ≥ 70 | ≥ 70 |  |  |  |  |
| CN(C(=O)c1cccc(F)c1)c1cccc(C(=O)Nc2c(Br)cc(C(F)(C(F)(F)F)C(F)(F)F)cc2C(F)(F)F)c1F [7-1576] | ≥ 70 | ≥ 70 | ≥ 70 |  | ≥ 70 | ≥ 70 | ≥ 70 |  | ≥ 70 | ≥ 70 |  |  |  |  |
| CN(C(=O)c1ccc(F)cc1)c1cccc(C(=O)Nc2c(Br)cc(C(F)(C(F)(F)F)C(F)(F)F)cc2C(F)(F)F)c1F [7-1577] | ≥ 70 | ≥ 70 |  |  | ≥ 70 | ≥ 70 | ≥ 70 | ≥ 70 | ≥ 70 | ≥ 70 | ≥ 70 |  |  |  |
| CN(C(=O)c1ccccc1)c1cccc(C(=O)Nc2c(I)cc(C(F)(C(F)(F)F)C(F)(F)F)cc2C(F)(F)F)c1F [7-1730] | ≥ 70 | ≥ 70 | ≥ 70 |  | ≥ 70 | ≥ 70 | ≥ 70 | ≥ 70 | ≥ 70 |  |  |  |  |  |
| CN(C(=O)c1cccc(C#N)c1)c1cccc(C(=O)Nc2c(I)cc(C(F)(C(F)(F)F)C(F)(F)F)cc2C(F)(F)F)c1F [7-1750] | ≥ 70 | ≥ 70 | ≥ 70 |  | ≥ 70 | ≥ 70 | ≥ 70 |  | ≥ 70 | ≥ 70 |  |  |  |  |
| CN(C(=O)c1ccc(Cl)nc1)c1cccc(C(=O)Nc2c(I)cc(C(F)(C(F)(F)F)C(F)(F)F)cc2C(F)(F)F)c1F [7-1773] | ≥ 70 | ≥ 70 |  |  | ≥ 70 | ≥ 70 | ≥ 70 |  | ≥ 70 | ≥ 70 | ≥ 70 |  |  |  |
| CN(C(=O)c1ccc(Cl)nc1)c1cccc(C(=O)Nc2c(I)cc(C(F)(C(F)(F)F)C(F)(F)C(F)(F)F)cc2C(F)(F)F)c1F (centres unmarked) [7-1851] | ≥ 70 | ≥ 70 |  |  | ≥ 70 | ≥ 70 | ≥ 70 |  | ≥ 70 | ≥ 70 | ≥ 70 |  |  |  |
| CCc1cc(C(F)(C(F)(F)F)C(F)(F)F)cc(C)c1NC(=O)c1cccc(NC(=O)C2CC2)c1 [compound (F)] |  |  |  |  |  |  |  |  |  |  |  | 0.0 | 0.0 | 0.0 |
